Earlier results in patent publication US20130053422A1, “Antimicrobial Compositions” (priority 2010, published 2013).

Assays:
Conditions in all cases: after 5 to 60 minutes
Herpes virus type 1 = tested on: Herpes virus type 1
Vaccinia virus = tested on: Vaccinia virus
bovine parainfluenzae 3 = tested on: bovine parainfluenzae 3

CCCCCCCCCCCC(=O)N[C@@H](CCCN=C(N)N)C(=O)OCC [LAE, lauric arginate]
nearly complete reduction: reduction of Herpes virus type 1 (Herpes virus type 1) | reduction of Vaccinia virus (Vaccinia virus) | reduction of bovine parainfluenzae 3 (bovine parainfluenzae 3)
